Patent publication US9315489B2, “Compounds and compositions for inhibiting the activity of ABL1, ABL2 and BCR-ABL1” (Novartis AG, priority 2012, dated 2016)
Like-named read-outs stand apart in the source and are kept apart here.

Key:
ABL1 (64-515) [1] = target: T1, ABL1 (64-515) (Homo sapiens (Human), UniProt P00519); assay: Radio ABL1 (64-515) assay (radiometric filter-binding); assay type: biochemical
Description: For determination of ABL kinase activity, the radiometric filter-binding assay was used. […] Pre-incubation of enzyme with compounds (when stated) was performed by exposing the enzyme to compounds prior to addition of the substrate mixture (ATP and/or peptide substrate). […] Millipore, Volketswil, Switzerland) prepared according to the manufacturer's instructions. Filter-plates were washed 3× with 0.5% H3PO4, followed by addition of 30 μL scintillation cocktail (Microscint, Perkin Elmer) per well and then analysed in a TopCount NXT scintillation counter (Perkin Elmer). Results were expressed as IC50 values.

ABL1 (64-515) [2] = target: T1, ABL1 (64-515); assay: Caliper ABL1 (64-515) assay (microfluidic mobility shift); assay type: biochemical
Description: All assays were performed in 384-well microtiter plates. Each assay plate contained 8-point serial dilutions for 40 test compounds, as well as four 8-point serial dilutions of staurosporine as a reference compound, plus 16 high and 16 low controls. Liquid handling and incubation steps were done on a Thermo CatX workstation equipped with Innovadyne Nanodrop Express. Between pipetting steps, tips were cleaned in wash cycles using wash buffer.
The assay plates were prepared by addition of 50 nL per well of compound solution in 90% DMSO. […] Plates with terminated kinase reactions were transferred to the Caliper LC3000 workstations for reading. Phosphorylated and unphosphorylated peptides were separated using the Caliper microfluidic mobility shift technology. Briefly, samples from terminated kinase reactions were applied to the chip. Analytes are transported through the chip by constant buffer flow and the migration of the substrate peptide is monitored by the fluorescence signal of its label. Phosphorylated peptide (product) and unphosphorylated peptide (substrate) are separated in an electric field by their charge/mass ratio. Kinase activities were calculated from the amounts of formed phospho-peptide. IC50 values were determined from percent inhibition values at different compound concentrations by non-linear regression analysis.
Test compounds were dissolved in DMSO (10 mM) and transferred into 1.4 mL flat bottom or V-shaped Matrix tubes carrying a unique 2D matrix. The stock solutions were stored at +2° C. if not used immediately. For the test procedure the vials were defrosted and identified by a scanner whereby a working sheet was generated that guided the subsequent working steps.
Compound dilutions were made in 96-well plates. This format enabled the assay of maximally 40 individual test compounds at 8 concentrations (single points) including 4 reference compounds. The dilution protocol included the production of “pre-dilution plates”, “master plates” and “assay plates”.
Polypropylene 96-well plates were used as pre-dilution plates. […] All dilution steps were done on a HamiltonSTAR robot.
These plates were used directly for the assay which was performed in a total volume of 9.05 μL.

[3] = system: Ba/F3-BCR-ABL1-T315I cells; assay: Ba/F3-BCR-ABL1-T315I cellular proliferation assay; assay type: cell-based, murine; conditions: Mus musculus, read-out: Ba/F3-BCR-ABL1-T315I IC50
Description: The murine bone marrow-derived cell line Ba/F3 was used to generate the appropriate cell line models. Ba/F3 cells were obtained from the German Collection of Microorganisms and Cell Cultures (DSMZ, Braunschweig and DSMZ No. ACC 300). […] These cells are referred to as Ba/F3-WT.
To generate Ba/F3 cells that depend on BCR-ABL1 expression for growth and survival, Ba/F3 cells were engineered to express BCR-ABL1 using retroviral transduction with a MSCV based retroviral vector containing a p210 BCR-ABL1expression cassette. When grown in the absence of IL-3, the proliferation of the cells is dependent on the expression of BCR-ABL1. (Daley, G. Q. and Baltimore, D. Transformation of an interleukin 3-dependent hematopoietic cell line by the chronic myeloid leukemia-specific p210 BCR-ABL1 protein. PNAS 1988; 85:9312-9316). These cells are referred to as Ba/F3-BCR-ABL1-WT. A similar approach was used to generate Ba/F3 cells that depend on a BCR-ABL1 variant in which threonine 315 is replaced with isoleucine. These cells are referred to as Ba/F3-BCR-ABL1-T3151.
Ba/F3-WT cells were maintained in RPMI1640 media with L-glutamine, HEPES (Lonza), 10% FBS (Gibco) and 5 ng/ml IL-3 (Calbiochem). Ba/F3-BCR-ABL1-WT cells and Ba/F3-BCR-ABL1-T3151 cells were maintained in RPMI1640 media with L-glutamine, HEPES (Lonza) and 10% FBS (Gibco).
For each cell line, the cell density was adjusted to 50 000 cells/mL and 50 μL (2500 cells) added per well of a 384-well assay plate.
Test compounds were resuspended in DMSO at a concentration of 10 mM. A serial three-fold dilution of each compound with DMSO was performed in 384-well plates using the Janus Liquid Dispenser (PerkinElmer). Compound was delivered to the assay plates containing 2500 cells in a 50 μL volume via Acoustic delivery from an ATS-100 (EDC). For Ba/F3-BCR-ABL1-WT cell assays, […] of each compound dilution was transferred to the assay plate for final assay concentrations of 0.4 μM, 0.13 μM, 0.044 μM, 0.015 μM, 0.005 μM, 0.001 μM, 0.00033 μM, 0.00011 μM, 0.000037 μM, 0.000012 μM. For Ba/F3-WT and Ba/F3-BCR-ABL1-T315I cell assays, […] of each compound dilution was transferred to the assay plate for final assay concentrations of 10 μM, 3.33 μM, 1.11 μM, 0.37 μM, 0.12 μM, 0.041 μM, 0.014 μM, 0.0046 μM, 0.0015 μM, 0.00051 μM.
Cells were incubated at 37° C. in a humidified environment with 5% carbon dioxide for 48 hours. Britelite plus solution (Perkin Elmer) was prepared according to the manufacturer's instructions and 25 μL added to each well of the assay plate. Plates were incubated for 3-5 minutes and the luminescence detected on an EnVision Multimode plate reader (Perkin Elmer). The degree of luminescence correlates with the number of cells in each well. The effect of each inhibitor concentration can therefore be calculated and IC50 values generated.

Ba/F3-BCR-ABL1-WT cells = assay: Ba/F3-BCR-ABL1-WT cellular proliferation assay; assay type: cell-based, murine; conditions: Mus musculus, read-out: Ba/F3-BCR-ABL1-WT IC50
Description: To generate Ba/F3 cells that depend on BCR-ABL1 expression for growth and survival, Ba/F3 cells were engineered to express BCR-ABL1 using retroviral transduction with a MSCV based retroviral vector containing a p210 BCR-ABL1expression cassette. […] These cells are referred to as Ba/F3-BCR-ABL1-WT.
Cells were incubated at 37° C. in a humidified environment with 5% carbon dioxide for 48 hours. Britelite plus solution (Perkin Elmer) was prepared according to the manufacturer's instructions and 25 μL added to each well of the assay plate. […] The degree of luminescence correlates with the number of cells in each well. The effect of each inhibitor concentration can therefore be calculated and IC50 values generated.

[4] = Compound concentration in mouse brain and plasma; assay type: in vivo; conditions: 5 minutes after a single intravenous injection of 1 mg/kg in mice; for Kp at 5 min / concentration at 5 min: mouse; for Kp at 5 min: brain/plasma, read-out: Mean Ratio (brain/plasma); for concentration at 5 min: plasma, read-out: Mean blood (drug concentration in plasma)
Description: Approximately two parts volume of MeOH/water (2/8 v/v) were added to the preweighted brain samples (˜250 mg) and subsequently homogenized using Covaris™ instrument. A 50 μL aliquot was subjected to protein precipitation and analysis as described below.
Fifty μL aliquots of blood or brain homogenate from animals treated with c-ABL inhibitors were first spiked with 5 μL of the internal standard (N-(4-methyl-3-((4-(6-methylpyridin-3-yl)pyrimidin-2-yl)amino)phenyl)-4-((4-methylpiperazin-1-yl)methyl)benzamide for positive ion mode 5-chloro-N-(4-(N-(cyclohexylcarbamoyl)sulfamoyl)-phenethyl)-2-methoxybenzamide for negative ion mode, respectively), subsequently deproteinated by adding MeCN (200 μL), centrifuged, the supernatant evaporated to dryness, and re-dissolved in 100 μL of a MeOH/water (1/1 v/v). Five μL were subjected to HPLC-MS/MS analysis. Chromatographic separation from interfering endogenous and exogenous contaminants was achieved on an Phenomenex™ Polar RP reversed-phase HPLC column (particle size: 2.5 μm; column dimensions: 2×50 mm) using a linear gradient of 100% water containing 1% formic acid (A), and MeOH supplemented with 1% formic acid (B), which was run over 6.0 min from 5% to 90% B, then kept at 100% B for 1.0 min, and a subsequent 1.5 min postrun with re-equilibration of the column. The column was kept at 50° C. The flow of 350 μL/min from the HPLC system (Flux Rheos Allegro LC pump and CTC Pal autosampler) was directly introduced into the ion source of an Finnigan™ Quantum Ultra MS-detector (triple stage quadrupole mass analyzer) and subjected to heated electrospray ionization (HESI).
c-ABL inhibitors were specifically detected using multiple reaction monitoring from their quasi-molecular parent ion ([M+H]^+ or [M−H]^−) to specific daughter ions as given in the table below. Quantification of blood and brain levels of c-ABL inhibitors compounds were based on a 6-level calibration curve made in triplicate.

T1 sequence (P00519 64-515): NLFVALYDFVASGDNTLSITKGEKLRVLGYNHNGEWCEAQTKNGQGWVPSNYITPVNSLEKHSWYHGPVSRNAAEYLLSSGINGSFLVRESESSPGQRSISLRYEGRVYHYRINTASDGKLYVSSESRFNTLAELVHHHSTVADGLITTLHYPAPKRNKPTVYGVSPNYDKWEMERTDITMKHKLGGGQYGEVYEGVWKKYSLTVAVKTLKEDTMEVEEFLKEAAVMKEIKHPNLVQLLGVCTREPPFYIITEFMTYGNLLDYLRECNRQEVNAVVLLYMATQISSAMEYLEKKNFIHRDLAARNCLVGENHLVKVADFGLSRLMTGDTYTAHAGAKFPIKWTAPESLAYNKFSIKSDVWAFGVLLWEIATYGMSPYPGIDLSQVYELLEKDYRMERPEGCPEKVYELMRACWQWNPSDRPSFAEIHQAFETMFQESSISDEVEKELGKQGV

Structure (SMILES)	IC50 (ABL1 (64-515) [1])	IC50 (ABL1 (64-515) [2])	IC50 ([3]; 48 hours)	IC50 (Ba/F3-BCR-ABL1-WT cells; 48 hours)	also measured
Nc1ncc(-c2cncc(C(=O)Nc3ccc(OC(F)(F)F)cc3)c2)cn1 [Example 61, 5-(2-Aminopyrimidin-5-yl)-N-(4-(trifluoromethoxy)phenyl)nicotinamide]	3.5 nM	31.5 nM			
O=C(Nc1ccc(OC(F)(F)F)cc1)c1cnc(Cl)c(-c2ccn[nH]2)c1 [Example 80, 6-Chloro-5-(1H-pyrazol-5-yl)-N-(4-(trifluoromethoxy)phenyl)nicotinamide]		55 nM			
O=C(Nc1ccc(OC(F)(F)F)cc1)c1cc(-c2cncnc2)ccc1F [Example 59, 2-Fluoro-5-(pyrimidin-5-yl)-N-(4-(trifluoromethoxy)phenyl)benzamide]	20 nM	93 nM			
O=C(Nc1ccc(OC(F)(F)Cl)cc1)c1cnc(OC2CCOCC2)c(-c2cncnc2)c1 [Example 67, N-(4-(Chlorodifluoromethoxy)phenyl)-5-(pyrimidin-5-yl)-6-((tetrahydro-2h-pyran-4-yl)oxy)nicotinamide]	1.2 nM	3.8 nM	456 nM		
O=C(Nc1ccc(OC(F)(F)F)cc1)c1cnc(OC2CCOCC2)c(-c2cncnc2)c1 [Example 53, 5-(Pyrimidin-5-yl)-6-((tetrahydro-2h-pyran-4-yl)oxy)-N-(4-(trifluoromethoxy)phenyl)nicotinamide]	8.9 nM	22 nM			
CC(C)(O)c1ncc(C(=O)Nc2ccc(OC(F)(F)F)cc2)cc1-c1cncnc1 [Example 66, 6-(2-Hydroxypropan-2-yl)-5-(pyrimidin-5-yl)-N-(4-(trifluoromethoxy)phenyl)nicotinamide]			722 nM		
O=C(Nc1ccc(OC(F)(F)F)cc1)c1cncc(-c2cnn(CCO)c2)c1 [Example 64, 5-(1-(2-Hydroxyethyl)-1H-pyrazol-4-yl)-N-(4-(trifluoromethoxy)phenyl)nicotinamide]	114 nM	200 nM			
Cc1ccc(C(=O)Nc2ccc(OC(F)(F)F)cc2)cc1-n1ccnc1 [Example 16, 3-(1H-Imidazol-1-yl)-4-methyl-N-(4-(trifluoromethoxy)phenyl)benzamide]	4 nM		617 nM	1.2 nM	
O=C(Nc1ccc(OC(F)(F)Cl)cc1)c1cccc(-c2cncnc2)c1 [Example 10, N-(4-(Chlorodifluoromethoxy)phenyl)-3-(pyrimidin-5-yl)benzamide]	9.5 nM		400 nM	2.1 nM	Mean brain (drug concentration in brain) [4]: 4093 pmol/g; Kp at 5 min [4]: 3.24; concentration at 5 min [4]: 1260 nM
Cc1ncc(C(=O)Nc2ccc(OC(F)(F)F)cc2)cc1-c1cncnc1 [Example 43, 6-Methyl-5-(pyrimidin-5-yl)-N-(4-(trifluoromethoxy)phenyl)nicotinamide]	3 nM	2.3 nM		10 nM	
CCOc1ncc(C(=O)Nc2ccc(OC(F)(F)F)cc2)cc1-c1cncnc1 [Example 58, 6-Ethoxy-5-(pyrimidin-5-yl)-N-(4-(trifluoromethoxy)phenyl)nicotinamide]	49 nM	9.4 nM	754 nM		
O=C(Nc1ccc(OC(F)(F)F)cc1)c1cnc(Cl)c(-c2cncc(F)c2)c1 [Example 77, 2-Chloro-5′-fluoro-N-(4-(trifluoromethoxy)phenyl)-[3,3′-bipyridine]-5-carboxamide]		4.9 nM		13 nM	
O=C(Nc1ccc(OC(F)(F)F)cc1)c1cnc(C(F)(F)F)c(-c2cncnc2)c1 [Example 57, 5-(Pyrimidin-5-yl)-N-(4-(trifluoromethoxy)phenyl)-6-(trifluoromethyl)nicotinamide]	22 nM		703 nM		
O=C(Nc1ccc(OC(F)(F)F)cc1)c1cnc(C2=CCOCC2)c(-c2cncnc2)c1 [Example 44, 6-(3,6-Dihydro-2h-pyran-4-yl)-5-(pyrimidin-5-yl)-N-(4-(trifluoromethoxy)phenyl)nicotinamide]	6 nM		214 nM		
COc1ccc(C(=O)Nc2ccc(OC(F)(F)F)cc2)cc1-c1cncnc1 [Example 30, 4-methoxy-3-(pyrimidin-5-yl)-N-(4-(trifluoromethoxy)phenyl)benzamide]					IC50 (Ba/F3-BCR-ABL1-WT cells; 48 h): 4.1 nM; IC50 ([3]; 48 h): 849 nM; Mean brain (drug concentration in brain) [4]: 4471 pmol/g; concentration at 5 min [4]: 5390 nM
O=C(Nc1ccc(OC(F)(F)F)cc1)c1cnc(Cl)c(-c2cccnc2)c1 [Example 79, 2-Chloro-N-(4-(trifluoromethoxy)phenyl)-[3,3′-bipyridine]-5-carboxamide]		10 nM		6 nM	
COCCOc1ncc(C(=O)Nc2ccc(OC(F)(F)F)cc2)cc1-c1cncnc1 [Example 51, 6-(2-Methoxyethoxy)-5-(pyrimidin-5-yl)-N-(4-(trifluoromethoxy)phenyl)nicotinamide]	63 nM	51 nM			
N#CC1(c2ncc(C(=O)Nc3ccc(OC(F)(F)F)cc3)cc2-c2cncnc2)CCOCC1 [Example 46, 6-(4-Cyanotetrahydro-2h-pyran-4-yl)-5-(pyrimidin-5-yl)-N-(4-(trifluoromethoxy)phenyl)nicotinamide]		6.6 nM			
O=C(Nc1ccc(OC(F)(F)F)cc1)c1cnc(C2CCOCC2)c(-c2cncnc2)c1 [Example 45, 5-(Pyrimidin-5-yl)-6-(tetrahydro-2h-pyran-4-yl)-N-(4-(trifluoromethoxy)phenyl)nicotinamide]			460 nM		
Cc1ccc(C(=O)Nc2ccc(OC(F)(F)F)cc2)cc1-c1cncs1 [Example 17, 4-Methyl-3-(thiazol-5-yl)-N-(4-(trifluoromethoxy)phenyl)benzamide]	3 nM			27 nM	Mean brain (drug concentration in brain) [4]: 6985 pmol/g; Kp at 5 min [4]: 2.3; concentration at 5 min [4]: 3030 nM
O=C(Nc1ccc(SC(F)(F)F)cc1)c1cccc(-c2cncnc2)c1 [Example 11, 3-(Pyrimidin-5-yl)-N-(4-((trifluoromethyl)thio)phenyl)benzamide]	< 3 nM		563 nM	3.9 nM	Mean brain (drug concentration in brain) [4]: 7341 pmol/g; Kp at 5 min [4]: 4.99; concentration at 5 min [4]: 1470 nM
Cc1ccc(C(=O)Nc2ccc(OC(F)(F)F)cc2)cc1-c1cccnc1 [Example 15, 4-Methyl-3-(pyridin-3-yl)-N-(4-(trifluoromethoxy)phenyl)benzamide]	4 nM			11 nM	Mean brain (drug concentration in brain) [4]: 6847 pmol/g; Kp at 5 min [4]: 3.2; concentration at 5 min [4]: 2140 nM
O=C(Nc1ccc(OC(F)(F)F)cc1)c1cccc(-c2cncnc2)n1 [Example 73, 6-(Pyrimidin-5-yl)-N-(4-(trifluoromethoxy)phenyl)picolinamide]	684 nM	540 nM		1870 nM	
O=C(Nc1ccc(OC(F)(F)F)cc1)c1ccc(OCCN2CCOCC2)c(-c2cncnc2)c1 [Example 37, 4-(2-Morpholinoethoxy)-3-(pyrimidin-5-yl)-N-(4-(trifluoromethoxy)phenyl)benzamide]	3.6 nM		521 nM		
CC(C)(C#N)c1ncc(C(=O)Nc2ccc(OC(F)(F)F)cc2)cc1-c1cncnc1 [Example 47, 6-(2-Cyanopropan-2-yl)-5-(pyrimidin-5-yl)-N-(4-(trifluoromethoxy)phenyl)nicotinamide]			736 nM		
